Active and inactive are the calls of the source. No cut-off for these calls is given here.

The results in this text go back to ChEMBL document CHEMBL1133817, “Discovery of novel, orally active dual NK1/NK2 antagonists” (Bioorg Med Chem Lett, 2001).

Series [1] addresses T1, Substance-K receptor (Oryctolagus cuniculus) (UniProt P79218).
T1 sequence (whole entry): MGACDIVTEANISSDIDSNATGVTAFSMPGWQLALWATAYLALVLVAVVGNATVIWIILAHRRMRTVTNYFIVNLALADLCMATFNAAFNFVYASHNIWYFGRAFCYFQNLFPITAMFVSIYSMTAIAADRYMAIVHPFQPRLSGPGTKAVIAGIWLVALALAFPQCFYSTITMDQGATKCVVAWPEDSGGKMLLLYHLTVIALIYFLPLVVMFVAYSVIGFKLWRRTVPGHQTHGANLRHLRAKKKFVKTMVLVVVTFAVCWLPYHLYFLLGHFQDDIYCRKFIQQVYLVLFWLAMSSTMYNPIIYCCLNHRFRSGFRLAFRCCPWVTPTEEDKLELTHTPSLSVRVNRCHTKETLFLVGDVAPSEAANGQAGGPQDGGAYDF
As to the kind of experiment: Binding constant towards Tachykinin receptor 2 using BANK as agonist on rabbit pulmonary artery tissues.

In series [2] the target is T2, Substance-P receptor (Homo sapiens, UniProt P25103). As to the kind of experiment: Binding affinity against human cloned Tachykinin receptor 1 expressed in MEL cells. It is filed as cell-based.
T2 sequence (P25103 whole entry): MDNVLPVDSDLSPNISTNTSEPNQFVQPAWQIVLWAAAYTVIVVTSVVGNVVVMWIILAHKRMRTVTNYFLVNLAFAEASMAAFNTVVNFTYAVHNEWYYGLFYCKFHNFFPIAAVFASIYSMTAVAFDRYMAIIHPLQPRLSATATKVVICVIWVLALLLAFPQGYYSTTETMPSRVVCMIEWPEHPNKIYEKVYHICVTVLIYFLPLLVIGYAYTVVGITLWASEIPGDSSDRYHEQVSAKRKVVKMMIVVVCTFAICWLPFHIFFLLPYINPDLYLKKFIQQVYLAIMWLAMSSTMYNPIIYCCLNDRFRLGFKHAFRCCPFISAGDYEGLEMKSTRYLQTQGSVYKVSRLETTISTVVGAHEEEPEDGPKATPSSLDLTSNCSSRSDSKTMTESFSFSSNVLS
Series [3] concerns the target T3, Substance-K receptor (Homo sapiens) (UniProt P21452).
T3 sequence (whole entry): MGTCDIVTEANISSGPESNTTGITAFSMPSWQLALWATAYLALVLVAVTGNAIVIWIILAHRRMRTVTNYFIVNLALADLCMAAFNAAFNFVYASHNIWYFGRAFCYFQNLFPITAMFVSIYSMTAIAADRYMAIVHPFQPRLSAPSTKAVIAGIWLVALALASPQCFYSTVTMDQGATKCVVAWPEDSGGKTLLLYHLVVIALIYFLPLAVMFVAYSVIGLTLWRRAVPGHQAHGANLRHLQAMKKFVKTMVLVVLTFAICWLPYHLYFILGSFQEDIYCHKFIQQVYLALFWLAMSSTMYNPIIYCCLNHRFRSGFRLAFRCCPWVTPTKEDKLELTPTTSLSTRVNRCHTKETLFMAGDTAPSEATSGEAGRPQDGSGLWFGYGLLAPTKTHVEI
Particulars: Bronchus.
Description: Binding constant towards Tachykinin receptor 2 using NKA as agonist on human bronchus

Series [4] addresses T4, Neuromedin-K receptor (Homo sapiens, UniProt P29371).
T4 sequence (P29371 whole entry): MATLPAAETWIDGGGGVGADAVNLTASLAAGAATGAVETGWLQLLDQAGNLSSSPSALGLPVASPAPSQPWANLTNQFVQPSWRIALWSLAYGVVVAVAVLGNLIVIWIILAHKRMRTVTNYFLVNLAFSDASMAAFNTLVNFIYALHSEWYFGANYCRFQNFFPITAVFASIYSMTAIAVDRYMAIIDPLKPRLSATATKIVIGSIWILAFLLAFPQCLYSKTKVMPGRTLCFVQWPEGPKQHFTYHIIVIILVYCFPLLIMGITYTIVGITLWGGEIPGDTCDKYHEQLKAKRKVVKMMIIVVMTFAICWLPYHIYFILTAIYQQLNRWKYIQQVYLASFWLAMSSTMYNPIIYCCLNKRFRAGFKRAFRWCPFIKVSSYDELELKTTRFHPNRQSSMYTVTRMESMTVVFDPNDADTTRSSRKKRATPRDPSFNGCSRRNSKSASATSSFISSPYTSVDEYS
As to the kind of experiment: Binding affinity against human cloned Tachykinin receptor 3 expressed in MEL cells. In kind it is cell-based.

The target in series [5] is T5, Substance-K receptor (Homo sapiens, UniProt P21452).
T5 sequence (P21452 whole entry): T3 sequence (whole entry)
In words: Binding affinity against human cloned Tachykinin receptor 2 expressed in MEL cells. In kind it is cell-based.

The target of series [6] is T2, Substance-P receptor. The following applies: Artery.
Description: (§1) Binding constant towards Tachykinin receptor 1 using ASMSP as agonist on human pulmonary artery tissues
For series [7], the system named is Substance-P receptor (Oryctolagus cuniculus). In words: Binding constant towards tachykinin receptor 1 using ASMSP as agonist on rabbit pulmonary artery tissues.
The target in series [8] is T1, Substance-K receptor (Oryctolagus cuniculus). In words: Binding constant towards Tachykinin receptor 2 using BANK as agonist on rabbit pulmonary artery tissues; NA is not active.
Series [9] in a line: Plasma clearance in rat at a dose of 10 uM/kg in rat was determined. The following applies: read-out: Clp. It is filed as ADME, organism-based.
Series [10] can be described thus: Bioavailability by oral administration at a dose of 100 uM/kg in rat was determined. Particulars: in vivo, read-out: Bioavailabiility. It is filed as ADME, organism-based.
Series [11] relates to Rattus norvegicus. In words: Area under curve by intravenous administration at a dose of 10 uM/kg in rat was determined. In kind it is ADME, organism-based. Particulars: in vivo.
Series [12] can be described thus: Tmax by oral administration at a dose of 100 uM/kg in rat was determined. It is filed as ADME, organism-based. The following applies: in vivo.
The test system of series [13] is Canis familiaris. In words: Area under curve by intravenous administration at a dose of 1 uM/kg in dog was determined. It is filed as ADME, organism-based, Canis lupus familiaris. The following applies: in vivo.
Series [14] is described as follows: Maximum concentration by oral administration at a dose of 10 umol/kg in dog was determined. The following applies: in vivo. Also on record: dose 10 umol/kg, route oral. In kind it is ADME, organism-based, Canis lupus familiaris.
Series [15] in a line: Maximum concentration by oral administration at a dose of 100 umol/kg in rat was determined. Also on record: dose 100 umol/kg, route oral. Particulars: in vivo. In kind it is ADME, organism-based.
Series [16] is described as follows: Half life period at a dose of 10 uM/kg in rat was determined. It is filed as ADME, organism-based. Particulars: in vivo.
Series [17] can be described thus: Bioavailability by oral administration at a dose of 10 uM/kg in dog was determined. In kind it is ADME, organism-based, Canis lupus familiaris. Particulars: in vivo, read-out: Bioavailabiility.
Series [18] is described as follows: Volume distribution at a dose of 10 uM/kg in rat was determined. It is filed as ADME, organism-based. Particulars: in vivo, read-out: Vdss.
In series [19] the test system is Canis familiaris. As to the kind of experiment: Area under curve by oral administration at a dose of 10 uM/kg in dog was determined. It is filed as ADME, organism-based, Canis lupus familiaris. The following applies: in vivo.
Series [20] is described as follows: Tmax by oral administration at a dose of 10 uM/kg in dog was determined. In kind it is ADME, organism-based, Canis lupus familiaris. Particulars: in vivo.
In series [21] the test system is Rattus norvegicus. In words: Area under curve by oral administration at a dose of 100 uM/kg in rat was determined. In kind it is ADME, organism-based. The following applies: in vivo.
A short description of series [22]: Half-life period by oral administration at a dose of 10 uM/kg in dog was determined. It is filed as ADME, organism-based, Canis lupus familiaris. Particulars: in vivo.
Series [23] in a line: Half life period at a dose of 1 uM/kg in dog was determined. In kind it is ADME, organism-based, Canis lupus familiaris. The following applies: in vivo.
A short description of series [24]: Volume distribution at a dose of 1 uM/kg in dog was determined. In kind it is ADME, organism-based, Canis lupus familiaris. The following applies: in vivo, read-out: Vdss.
Series [25] addresses T2, Substance-P receptor. Particulars: Oryctolagus cuniculus; Artery.
Description: Binding constant towards Tachykinin receptor 1 using ASMSP as agonist on rabbit pulmonary artery tissues; NA is not active
Series [26] has as its target T2, Substance-P receptor. The following applies: Artery. The source holds these as a separate data set.
Description: as §1

With `COc1cc(C(=O)N2CC[C@](CCN3CCC(C(N)=O)(c4ccccc4)CC3)(c3ccc(Cl)c(Cl)c3)C2)cc(OC)c1OC`, the pKB (usually −log10 of the KB, conventionally taken in molar units) in [1] is 6.7; in series [3] it was 6.4; in series [6], 6.9. For the same compound, the Ki (as a rule, the equilibrium dissociation constant of an inhibitor or competing ligand from its target) in [2] came out at 0.3 nM; in [4], 200 nM; in series [5] it was 1 nM.

Regarding `CN(C[C@@H](CCN1CCC(N2C(=O)CCCC2=O)CC1)c1ccc(Cl)c(Cl)c1)C(=O)c1cccc2ccccc12`, in series [7], the pKB came out at 6.28. Moreover, the pKB entry in series [8] was “inactive”.

Turning to `CN(C[C@@H](CCN1CCC(c2ccccc2[S@+](C)[O-])CC1)c1ccc(Cl)c(Cl)c1)C(=O)c1cc(C#N)cc2ccccc12` (stereo in doubt) [listing 1 of 2 here], the clearance in [9] was found to be 32.6 mL/min/kg. Further, the bioavailability in series [10] worked out at 9%; in series [17], 18%. Moreover, the AUC (as a rule, concentration integrated over time) in series [11] is 3200 ng·h/mL; in series [13], 1100 ng·h/mL; in series [19], 2000 ng·h/mL; in series [21] it was 3010 ng·h/mL. For the same compound, the figures for the Ki in series [2], in series [4] and in series [5] were 0.1 nM, 74 nM and 0.6 nM, respectively. Besides, the Tmax in series [12] and in series [20] was 2 h in each case. Besides, the maximum concentration (Cmax) – broadly, the maximum level reached in the sampled fluid or tissue – in series [14] came out at 364 ng/mL; in series [15], 421 ng/mL. Also, the half-life (as a rule, how long it takes for the measured level to halve) is 1.8 h in series [16], 2.3 h in [22] and 3.8 h in [23]. The Vd in [18] came to 3.7 L/kg; in series [24], 2 L/kg.

`CN(C[C@H](CCN1CCC(c2ccccc2[S+](C)[O-])CC1)c1ccc(Cl)c(Cl)c1)C(=O)c1cc(C#N)cc2ccccc12` (some centres not stated) displayed a pKB in series [1] of 7.1. Moreover, the pKB result in [25] is “inactive”.

`CN(C[C@@H](CCN1CCC(c2ccccn2)CC1)c1ccc(Cl)c(Cl)c1)C(=O)c1cccc2ccccc12` had a pKB in series [7] of 6.98. For the same compound, the pKB result in [8] is “inactive”.

With `CN(C[C@@H](CCN1CCC(c2ccccc2[S+](C)[O-])CC1)c1ccc(Cl)c(Cl)c1)C(=O)c1cc(C(F)(F)F)cc2ccccc12` (some centres not stated), the pKB in [1] is 6.45; in [7], 7.84.

Turning to `CN(C)C(=O)c1cc(C(=O)N(C)C[C@@H](CCN2CCC(c3ccccc3[S+](C)[O-])CC2)c2ccc(Cl)c(Cl)c2)c2ccccc2c1` (some centres not stated), the negative-log KB (pKB) in series [1] came to 7.31; in series [7] it was 5.17.

On to `CC(=O)NC1(c2ccccc2)CCN(CC[C@H](CN(C)C(=O)c2cccc3ccccc23)c2ccc(Cl)c(Cl)c2)CC1`, for which the values for the pKB in series [1] and in series [7] were 8.18 and 7.18, respectively.

In the case of `COc1cc(C(=O)N(C)C[C@@H](CCN2CCC(c3ccccc3[S+](C)[O-])CC2)c2ccc(Cl)c(Cl)c2)c2ccccc2c1` (some centres not stated), the results for the pKB in [1] and in [7] were 7.7 and 7.95, respectively.

For `CC(=O)c1cc(C(=O)N(C)C[C@@H](CCN2CCC(c3ccccc3[S+](C)[O-])CC2)c2ccc(Cl)c(Cl)c2)c2ccccc2c1` (some centres not stated), the pKB came to 7.17 in series [1] and 7.41 in series [7].

Turning to `CN(C[C@@H](CCN1CCC(c2ccccc2[S+](C)[O-])CC1)c1ccc(Cl)c(Cl)c1)C(=O)c1cc(S(N)(=O)=O)cc2ccccc12` (some centres not stated), the pKB in [1] is 7.02; in series [7], 7.54.

With `CNC(=O)C1(N2CCCCC2=O)CCN(CC[C@H](CN(C)C(=O)c2cccc3ccccc23)c2ccc(Cl)c(Cl)c2)CC1`, the negative logarithm of the KB (pKB) in [1] amounted to 8.44; in series [7] it was 6.42.

In the case of `CN(C[C@@H](CCN1CCC(c2ccccc2S(C)(=O)=O)CC1)c1ccc(Cl)c(Cl)c1)C(=O)c1cccc2ccccc12`, the figures for the pKB in series [1] and in series [7] were 7.55 and 7.81, respectively.

With `CN(C[C@@H](CCN1CCC(c2ccccc2C(F)(F)F)CC1)c1ccc(Cl)c(Cl)c1)C(=O)c1cccc2ccccc12`, the pKB in [7] was determined as 6.03. Moreover, the pKB result in [8] is “inactive”.

Take `CN(C[C@@H](CCN1CCC(c2ccccc2[S@+](C)[O-])CC1)c1ccc(Cl)c(Cl)c1)C(=O)c1cc(C#N)cc2ccccc12` (stereo in doubt) [listing 2 of 2 here]: the pKB is 8.26 in series [1], 7.5 in series [3] and 8.9 in [26].

For `CN(C[C@@H](CCN1CCC(c2cccnc2[S+](C)[O-])CC1)c1ccc(Cl)c(Cl)c1)C(=O)c1cccc2ccccc12` (some centres not stated), the results for the negative logarithm of the KB (pKB) in series [1] and in series [7] were 7.82 and 7.69, respectively.

As for `CN(C[C@@H](CCN1CCC(c2ccccc2[S+](C)[O-])CC1)c1ccc(Cl)c(Cl)c1)C(=O)c1cc(F)cc2ccccc12` (some centres not stated), the figures for the pKB in series [1] and in series [7] were 8.15 and 7.9, respectively.

With `CN(C[C@@H](CCN1CCC(c2ccccc2[S+](C)[O-])CC1)c1ccc(Cl)c(Cl)c1)C(=O)c1cc(Cl)cc2ccccc12` (some centres not stated), the figures for the pKB in [1] and in series [7] were 7.1 and 7.15, respectively.

As for `CN(C)C(=O)C1(N2CCCCC2=O)CCN(CC[C@H](CN(C)C(=O)c2cccc3ccccc23)c2ccc(Cl)c(Cl)c2)CC1`, the pKB in series [1] is 8.23; in series [7], 6.78.

Turning to `CNC(=O)C1(N2CCCNC2=O)CCN(CC[C@H](CN(C)C(=O)c2cccc3ccccc23)c2ccc(Cl)c(Cl)c2)CC1`, the negative logarithm of the KB (pKB) in series [1] worked out at 8.41; in series [7], 6.82.
